Reference: patent US20230078913A1, “ANDROGEN RECEPTOR MODULATORS AND METHODS FOR USE AS PROTEOLYSIS TARGETING CHIMERA LIGANDS” (ESSA Pharma, Inc., priority 2019, published 2023)
pIC50: −log10 of the molar value.

Test system: androgen receptor (androgen-induced PSA-luciferase activity in LNCaP cells)
Assay: Androgen-induced PSA (6.1 kb)-luciferase reporter assay in LNCaP cells
Type: cell-based
Conditions: Homo sapiens; LNCaP cells transiently transfected with PSA (6.1 kb)-luciferase reporter; R1881 (1 nM), 24 h; normalized to maximum androgen-induced activity (vehicle only)
Description: To determine the IC50, treatments were normalized to the maximum activity with androgen-induction (in the absence of test compounds, vehicle only) (Table 1).
Luciferase Assay: Lysates were thawed on ice then collected into V-bottom 96-well tissue culture plates. Lysates were centrifuged at 4° C. for 5 minutes at 4000 rpm. To measure luminescence of LNCaP cell lysates the Firefly Luciferase Assay System (Promega) was employed, according to manufacturer's protocol.
Comparisons between treatment and control groups were compared using Two-Way ANOVA with post-hoc Dunnett's and Tukey's tests. Differences were considered statistically significant at P values less than 0.05. Densitometric quantification of relative AR levels was determined by Image.

C[C@H](Oc1ccc(C(C)(C)c2cc(Cl)c(OCCCl)c(C#N)c2)cc1)c1ccnc(NS(C)(=O)=O)n1 [Example A170] was tested. Which pIC50 did it give?
Its pIC50 is 6.19.
